Laboratory results taken from PMC5321639, “Design and pharmacodynamics of recombinant NZ2114 histidine mutants with improved activity against methicillin-resistant Staphylococcus aureus” (AMB Express, 2017).
≈ marks a conversion by molar mass, not a printed value. Like-named read-outs stand apart in the source and are kept apart here. Where a SMILES comes first, the peptide text is derived from it. Bridges are numbered along the chain shown (N, C = ends).

Key:
[1] = conventional antibiotics; ref Pankuch and Appelbaum [2009b]; Pankuch et al. [2003]; Watanabe et al. [1997]; cited from earlier work
Text: The PAE is a very important pharmacodynamics parameter in choosing of antibiotic dosage regimens in clinical use (Pankuch and Appelbaum [2009a]).

S. aureus ATCC43300 [2] = assay: microbe, parasite or virus in culture; format: cell-based, Staphylococcus aureus; details: for MICc (MIC of the most effective combination): checkerboard; for MIC: read-out: MICa (MIC of drug alone); for FIC: MICc/MICa
Procedure: The MIC values of four antibiotics (vancomycin, ampicillin, rifampicin and ciprofloxacin) to S. aureus ATCC43300 were tested as the MIC assay described above. The peptide solutions and antibiotics were diluted twofold with the final concentrations ranging from 1/16 to 8× MIC, and added into 96-well plates in a checkerboard fashion (White et al. [1996]). The results of combination were evaluated by calculating the fractional inhibitory concentration index (FICI) of each combination. FIC of H1, H2, H3=MIC of H1, H2, H3, respectively, in combination with antibiotic/MIC of H1, H2, H3 alone; FIC of antibiotics=MIC of antibiotic in combination with peptide/MIC of antibiotic alone; FICI = FIC of H1, H2, H3+ antibiotic, respectively. The result of interaction between two antimicrobial drugs was determined according to: FICI ≤ 0.5 refers to synergy, 0.5 < FICI ≤ 1 refers to additivity, 1 < FICI ≤ 4 refers to indifference, and FICI > 4 is defined as antagonism (Tsuji and Rybak [2006]).

S. aureus ATCC43300 [3] = assay: Effect of NaCl concentration on activity (MIC); format: cell-based, Staphylococcus aureus
Procedure: (§1) The peptide solutions were diluted twofold with the range of final concentrations were 0.015–32 µg/ml (0.003–7.273 µM) for purified H1, H2, H3, H6, and H8. The test strains were grown in MHB medium at 37 °C to an OD600 of 0.4 and diluted to 1 × 10^5 CFU/ml. The 10 µl peptide and 90 µl cell suspension were added into each well. All assays were performed in triplicate. The antimicrobial activity of NZ2114 and vancomycin were tested as positive controls. The plates were incubated at 37 °C for 18–24 h. MIC was defined as the lowest peptide concentration of ones at which there was no visible growth (Tian et al. [2009]).
(§2) The effect of pH, temperature, NaCl concentration and proteinase on the activity of peptides was evaluated. Peptides were diluted twofold, then adjusted to a pH range from 2.0 to 10.0 and incubated at 37 °C for 4 h. The thermal stability of purified peptides was determined after 1-h incubation of peptides at 4, 20, 40, 60, 80 and 100 °C in deionized water, respectively. Aliquots of peptides were incubated in various proteinases solutions [pepsin (pH 2.0), trypsin (pH 8.0), proteinase K (pH 7.0)] at a ratio of 1:10, w/w (proteinase: peptide) at 37 °C for 3 h. For the ion stability, peptides were incubated in 50, 100, 200, 300, 400, 500 mM sodium chloride solutions, respectively. Other methods and conditions were prepared as the MIC assay described above (Li et al. [2015]; Qu et al. [2016]).

S. aureus ATCC43300 [4] = assay: Effect of proteinases on activity (MIC); format: cell-based, Staphylococcus aureus; details: 1:10 w/w proteinase:peptide, 37 °C for 3 h, then MIC assay
Procedure: as §1, §2

[5] = test system: S. aureus ATCC43300 (MRSA); assay: Time-kill curve assay; format: cell-based, Staphylococcus aureus; details: for time for bacterial counts to decrease to 2 log10 CFU/ml (a 99.9% reduction): start 1 × 10^5 CFU/ml, 37 °C, triplicate
Procedure: Bacterial culture (S. aureus ATCC43300) was diluted to 1 × 10^5 CFU/ml and H1, H2, and H3 were added. […] The mixture was cultivated at 250 rpm, 37 °C. The 100-µl samples were taken from each flask at 0, 2, 4, 6, 8, 12 and 24 h of incubation, and serial dilutions of samples were plated to count visible colonies. Vancomycin was tested in the same way as a positive control and the culture without antimicrobial agent as a negative control (Xiong et al. [2011]). All experiments were performed in triplicate.

S. aureus ATCC43300 [6] = assay: Postantibiotic effect (PAE); format: cell-based, Staphylococcus aureus; details: 2 h exposure at 37 °C, 1 × 10^8 CFU/ml, drug removed by 1:10^3 dilution, mean ± SD, n = 3
Procedure: After 2 h, the drug was removed by diluting 1:10^3 into the MHB and incubated at 37 °C, 250 rpm. The sample was taken to plate counting every 1 h until the bacterial cultures become turbid. The PAE was calculated by the following formula: PAE = T − C, where T is the time needed for the count of CFU in the test culture to increase 1 log10 (10-fold) above the 0 h and C is the time needed for the count of CFU in the untreated control culture to increase 1 log10 above the 0 h (Giguère et al. [2012]).

S. aureus ATCC43300 [7] = assay: Effect of pH on activity (MIC); format: cell-based, Staphylococcus aureus; details: then MIC assay
Procedure: as §1, §2

S. aureus ATCC43300 [8] = assay: Effect of temperature on activity (MIC); format: cell-based, Staphylococcus aureus; details: then MIC assay
Procedure: as §1, §2

**Q.** With daptomycin as the molecule, how does the PAE [1] read?
**A.** 2.0 h

**Q.** Which PAE [1] does the source give for NCC[C@H](O)C(=O)N[C@@H]1C[C@H](N)[C@@H](O[C@H]2O[C@H](CN)CC[C@H]2N)[C@H](O)[C@H]1O[C@H]1O[C@H](CO)[C@@H](O)[C@H](N)[C@H]1O [arbekacin] here?
**A.** 3.0 to 3.2 h

**Q.** What does the source list for CC[C@H](C)[C@@H]1NC(=O)[C@H](CO)NC(=O)[C@H](CCCCN)NC(=O)[C@@H]2CSSC[C@@H](C(=O)N[C@@H](Cc3ccc(O)cc3)C(=O)O)NC(=O)[C@H](CCCCN)NC(=O)[C@@H]3CSSC[C@H](NC(=O)[C@H](CCCNC(=N)N)NC(=O)[C@H](CC(C)C)NC(=O)[C@H](CC(=O)O)NC(=O)[C@H](CC(=O)O)NC(=O)[C@H](CCC(=O)O)NC(=O)[C@H](CC(N)=O)NC(=O)[C@H](Cc4c[nH]c5ccccc45)NC(=O)[C@@H]4CCCN4C(=O)CNC(=O)[C@H](CC(N)=O)NC(=O)[C@@H](NC(=O)CNC(=O)[C@H](Cc4ccccc4)NC(=O)CN)CSSC[C@H](NC(=O)[C@H](Cc4ccc(O)cc4)NC(=O)CNC(=O)CNC(=O)[C@H](CCCCN)NC(=O)[C@H](Cc4ccc(O)cc4)NC(=O)CNC(=O)[C@H](CCCCN)NC1=O)C(=O)N[C@@H](C)C(=O)N[C@@H](CCCCN)C(=O)NCC(=O)NCC(=O)N[C@@H](Cc1ccccc1)C(=O)N[C@@H](C(C)C)C(=O)N3)C(=O)N[C@@H](CCCCN)C(=O)N[C@@H](CC(N)=O)C(=O)N[C@@H](Cc1c[nH]cn1)C(=O)N2 [H1] (H-GFGCNGPWNEDDLRCKNHCKSIKGYKGGYCAKGGFVCKCY-OH; disulfide 4-30, 15-37, 19-39; N-terminus and C-terminus assumed)?
**A.** MICc (MIC of the most effective combination) (S. aureus ATCC43300 [2]; in combination with ampicillin): 0.014 µM; MICc (MIC of the most effective combination) (S. aureus ATCC43300 [2]; in combination with ciprofloxacin): 0.028 µM; MICc (MIC of the most effective combination) (S. aureus ATCC43300 [2]; in combination with rifampicin): 0.056 µM; MICc (MIC of the most effective combination) (S. aureus ATCC43300 [2]; in combination with vancomycin): 0.056 µM; MIC (S. aureus ATCC43300 [2]; drug alone): 0.056 µM; MIC in 50 mM NaCl (S. aureus ATCC43300 [3]; incubated in 50 mM sodium chloride solution): 0.057 µM (≈ 0.251 µg/mL); MIC in 100 mM NaCl (S. aureus ATCC43300 [3]; incubated in 100 mM sodium chloride solution): 0.057 µM (≈ 0.251 µg/mL); MIC in 200 mM NaCl (S. aureus ATCC43300 [3]; incubated in 200 mM sodium chloride solution): 0.057 µM (≈ 0.251 µg/mL); MIC in 300 mM NaCl (S. aureus ATCC43300 [3]; incubated in 300 mM sodium chloride solution): 0.057 µM (≈ 0.251 µg/mL); MIC in 400 mM NaCl (S. aureus ATCC43300 [3]; incubated in 400 mM sodium chloride solution): 0.057 µM (≈ 0.251 µg/mL); MIC in 500 mM NaCl (S. aureus ATCC43300 [3]; incubated in 500 mM sodium chloride solution): 0.057 µM (≈ 0.251 µg/mL); MIC after Proteinase K (S. aureus ATCC43300 [4]; proteinase K (pH 7.0)): 0.057 µM (≈ 0.251 µg/mL); MIC after Trypsin (S. aureus ATCC43300 [4]; trypsin (pH 8.0)): 0.057 µM (≈ 0.251 µg/mL); incubation time after which regrowth occurred ([5]; 1× MIC): 8 h; time for bacterial counts to decrease to 2 log10 CFU/ml (a 99.9% reduction) ([5]; 1× MIC): 6 h; incubation time after which regrowth occurred ([5]; 2× MIC): 12 h; bacterial counts at 24 h after regrowth ([5]; 2× MIC, 24 h): 3.40 log10 CFU/ml; time for bacterial counts to decrease to 2 log10 CFU/ml (a 99.9% reduction) ([5]; 2× MIC): 1.5 h; time for bacterial counts to decrease to 2 log10 CFU/ml (a 99.9% reduction) ([5]; 4× MIC): 1 h; PAE (S. aureus ATCC43300 [6]; 1× MIC): 0.90 ± 0.04 h; PAE (S. aureus ATCC43300 [6]; 2× MIC): 2.94 ± 0.07 h; MIC after incubation at pH2 (S. aureus ATCC43300 [7]; pH 2, 37 °C for 4 h): 0.057 μM; MIC after incubation at pH4 (S. aureus ATCC43300 [7]; pH 4, 37 °C for 4 h): 0.057 μM; MIC after incubation at pH6 (S. aureus ATCC43300 [7]; pH 6, 37 °C for 4 h): 0.057 μM; MIC after incubation at pH8 (S. aureus ATCC43300 [7]; pH 8, 37 °C for 4 h): 0.057 μM; MIC after incubation at 4 °C (S. aureus ATCC43300 [8]; 1 h at 4 °C in deionized water): 0.057 µM (≈ 0.251 µg/mL); MIC after incubation at 20 °C (S. aureus ATCC43300 [8]; 1 h at 20 °C in deionized water): 0.057 µM (≈ 0.251 µg/mL); MIC after incubation at 40 °C (S. aureus ATCC43300 [8]; 1 h at 40 °C in deionized water): 0.057 µM (≈ 0.251 µg/mL); MIC after incubation at 60 °C (S. aureus ATCC43300 [8]; 1 h at 60 °C in deionized water): 0.057 µM (≈ 0.251 µg/mL); MIC after incubation at 80 °C (S. aureus ATCC43300 [8]; 1 h at 80 °C in deionized water): 0.057 µM (≈ 0.251 µg/mL)

**Q.** Which MIC (S. aureus ATCC43300 [2]; Staphylococcus aureus, ATCC43300) does the source give for CO[C@H]1/C=C/O[C@@]2(C)Oc3c(C)c(O)c4c(O)c(c(/C=N/N5CCN(C)CC5)c(O)c4c3C2=O)NC(=O)/C(C)=C\C=C\[C@H](C)[C@H](O)[C@@H](C)[C@@H](O)[C@@H](C)[C@H](OC(C)=O)[C@@H]1C [rifampicin] here?
**A.** 0.019 µM

**Q.** And the “MICc (MIC of the most effective combination)” value (“MICc” for short) (S. aureus ATCC43300 [2]; in combination with H1)?
**A.** 0.019 µM

**Q.** And the “MICc” value (S. aureus ATCC43300 [2]; in combination with H2)?
**A.** 0.019 µM

**Q.** And the “MICc” value (S. aureus ATCC43300 [2]; in combination with H3)?
**A.** 0.038 µM

**Q.** And the FIC (S. aureus ATCC43300 [2]; in combination with H1)?
**A.** 1

**Q.** What about the FIC (S. aureus ATCC43300 [2]; in combination with H2) of the same molecule?
**A.** 1

**Q.** And the FIC (S. aureus ATCC43300 [2]; in combination with H3)?
**A.** 2

**Q.** With CN(C)c1cc(NC(=O)CNC(C)(C)C)c(O)c2c1C[C@H]1C[C@H]3[C@H](N(C)C)C(O)=C(C(N)=O)C(=O)[C@@]3(O)C(O)=C1C2=O [tigecycline] as the molecule, how does the PAE [1] read?
**A.** 3.2 h
